{"source": "patent US20250186403A1", "about": "(ARIZONA BOARD OF REGENTS ON BEHALF OF THE UNIVERSITY OF …, priority 2022, published 2025)", "key": {"Cne cells": {"test_system": "Cne cells", "test": "Checkerboard assay with known antifungals", "format": "cell-based, Cryptococcus neoformans", "conditions": "for MIC: Cryptococcus neoformans, read-out: MIC Alone", "procedure": "After adding Cne cells, the plates were incubated for 48 h. Well contents were mixed by pipette, and absorbance was read at 630 nm. […] Based on the FIC, the combinatorial effects are decided as in Table 2."}, "[1]": {"molecular_target": "Split-NanoLuc-Prp8 intein protein (Cryptococcus gattii, UniProt E6R027)", "sequence (E6R027 entry or part of it)": "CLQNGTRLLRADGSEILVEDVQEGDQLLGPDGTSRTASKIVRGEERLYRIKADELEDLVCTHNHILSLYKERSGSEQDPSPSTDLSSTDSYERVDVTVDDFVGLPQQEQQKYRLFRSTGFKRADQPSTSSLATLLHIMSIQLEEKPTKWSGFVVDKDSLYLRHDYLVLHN", "test": "Split nanoluciferase-Prp8 intein splicing assay", "format": "biochemical", "conditions": "1 nM protein, 100 µM TCEP, 24 h; read-out: IC50, Prp8-NanoBit splicing"}, "[2]": {"conditions": "single drug, ≥90% reduction of absorbance at 630 nm, 48 h"}}, "data": [{"smiles": "C[C@@H]1[C@H](O)[C@@H](C)/C=C/C=C/C=C/C=C/C=C/C=C/C=C/[C@H](O[C@@H]2O[C@H](C)[C@@H](O)[C@H](N)[C@@H]2O)C[C@@H]2O[C@](O)(C[C@@H](O)C[C@@H](O)[C@H](O)CC[C@@H](O)C[C@@H](O)CC(=O)O[C@H]1C)C[C@H](O)[C@H]2C(=O)O", "note": "[Amphotericin B]", "values": [{"measurement": "MIC Comb", "setting": "Cne cells; combination CMN + Amphotericin B, well E6", "result": 0.14, "unit": "µg/mL"}, {"measurement": "MIC Alone", "setting": "Cne cells; [2]", "result": 0.6, "unit": "µg/mL"}]}, {"smiles": "N.N.[Cl][Pt][Cl]", "note": "[cisplatin]", "values": [{"measurement": "IC50", "setting": "[1]", "result": 1410, "unit": "nM"}]}, {"smiles": "C[C@@H](c1ncncc1F)[C@](O)(Cn1cncn1)c1ccc(F)cc1F", "note": "[Voriconazole]", "values": [{"measurement": "MIC", "setting": "Cne cells; [2]", "result": 0.05, "unit": "µg/mL"}, {"measurement": "MIC Comb", "setting": "Cne cells; combination CMN + Voriconazole, well D4", "result": 0.05, "unit": "µg/mL"}]}, {"smiles": "CCC(C)n1ncn(-c2ccc(N3CCN(c4ccc(OCC5COC(Cn6cncn6)(c6ccc(Cl)cc6Cl)O5)cc4)CC3)cc2)c1=O", "note": "(stereo not drawn) [Itraconazole]", "values": [{"measurement": "MIC", "setting": "Cne cells; [2]", "result": 0.22, "unit": "µg/mL"}, {"measurement": "MIC Comb", "setting": "Cne cells; combination CMN + Itraconazole, well E4", "result": 0.22, "unit": "µg/mL"}]}, {"smiles": "Nc1nc(=O)[nH]cc1F", "note": "[5-Fluorocytosine]", "values": [{"measurement": "MIC", "setting": "Cne cells; [2]", "result": 4.13, "unit": "µg/mL"}, {"measurement": "MIC Comb", "setting": "Cne cells; combination CMN + 5-Fluorocytosine, well D2", "result": 2.06, "unit": "µg/mL"}]}]}
